Laboratory results taken from PMC9042912, “T cell receptor and IL-2 signaling strength control memory CD8^+ T cell functional fitness via chromatin remodeling” (Nature Communications, 2022).
“And” between values parts separate entries of the source, which are not always exact repeats. Equal entries are not always repeated. Where two headings read alike, the source gives them in different places. No end group written: not given here.

Assays:
H2-K^b = biological target: T1, H2-K^b (Mus musculus, UniProt P01901); assay: cell-based
T1 construct: RMA-S cells were added per well to a 96-well flat-bottom plate and incubated at 30 °C overnight; endogenous in cells; host or cells: RMA-S cells (TAP-deficient), obtained from Dr. Steve Porcelli
T1 sequence (P01901 22-369): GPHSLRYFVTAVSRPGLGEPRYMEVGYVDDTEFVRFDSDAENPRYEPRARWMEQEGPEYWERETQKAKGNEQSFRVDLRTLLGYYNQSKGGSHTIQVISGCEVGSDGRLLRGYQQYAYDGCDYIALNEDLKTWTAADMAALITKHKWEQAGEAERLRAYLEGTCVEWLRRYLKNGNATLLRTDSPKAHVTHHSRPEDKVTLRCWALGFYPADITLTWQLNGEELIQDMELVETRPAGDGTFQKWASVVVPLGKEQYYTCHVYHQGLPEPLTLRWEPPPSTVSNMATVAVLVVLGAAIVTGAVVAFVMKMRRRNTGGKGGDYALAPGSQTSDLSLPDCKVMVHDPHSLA
T1 sequence (P01887 21-119 partner): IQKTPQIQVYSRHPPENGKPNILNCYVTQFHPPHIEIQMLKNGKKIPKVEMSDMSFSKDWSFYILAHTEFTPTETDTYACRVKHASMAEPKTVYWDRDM

[1] = system: OT-I, gBT-I, P14, L9.6 T cells; settings: mouse
H2-D^b = H2-D^b (Mus musculus, UniProt P01899); assay type: cell-based
OT-I cells = assay type: in vivo, mouse; settings: for % Il2ra mut/mut among OT-I / % WT among OT-I: individual values

Sequence of H2-D^b (P01899 25-362, one chain of several): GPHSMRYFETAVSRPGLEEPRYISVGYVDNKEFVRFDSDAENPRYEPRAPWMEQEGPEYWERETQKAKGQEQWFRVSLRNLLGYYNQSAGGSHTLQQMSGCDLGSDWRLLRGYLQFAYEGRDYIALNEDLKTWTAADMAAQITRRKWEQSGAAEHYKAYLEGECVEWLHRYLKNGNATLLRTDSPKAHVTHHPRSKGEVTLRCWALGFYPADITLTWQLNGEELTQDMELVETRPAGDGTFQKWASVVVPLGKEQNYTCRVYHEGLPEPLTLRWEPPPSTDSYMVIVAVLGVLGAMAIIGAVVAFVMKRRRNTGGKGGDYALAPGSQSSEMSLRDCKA

CC[C@H](C)[C@H](NC(=O)[C@@H](NC(=O)[C@@H](N)CO)[C@@H](C)CC)C(=O)N[C@@H](CC(N)=O)C(=O)N[C@@H](Cc1ccccc1)C(=O)N[C@@H](CCC(=O)O)C(=O)N[C@@H](CCCCN)C(=O)N[C@@H](CC(C)C)C(=O)O [N4] gave a Kd (H2-K^b) of 111 nM.
In the case of KAVYNFATC [GP33-41], the “duration for which the Lm-expressed epitope induces naïve T cell proliferation in vivo” value [1] is reported as ~ 2 days and the “formation of stable complexes with D^b” value (H2-D^b) is reported as “form stable MHC class I complexes”.
Work on SIIQFEKL [Q4] yielded a Kd (H2-K^b) of 65 nM.
In the case of SIITFEKL [T4], the Kd (H2-K^b) is reported as 59 nM.
Work on SSIEFARL [gB498-505] yielded a Kd (H2-K^b) of 32 nM.
With diphtheria toxin [DT] the “decrease of primary OT-I cell expansion” value (OT-I cells; CD11c+ cell depletion 2 days after Lm-Ova infection) was ~ 50%, the “% Il2ra mut/mut among OT-I” value (OT-I cells; Memory + DT) was 29.30% and 45.50% and 51.90% and 25.10% and 25.90% and 50.30% and 56.40% and the “% WT among OT-I” value (OT-I cells; Memory + DT) was 70.10% and 54.40% and 47.80% and 74.30% and 73.60% and 49.50% and 43.40%. The “% Il2ra mut/mut among OT-I” value (OT-I cells; Primary + DT) was 4.26% and 7.74% and 13.10% and 8.93% and 11.40% and 29.60% and 21.10% and 24.20% and 24.80% and 4.23%, the “% WT among OT-I” value (OT-I cells; Primary + DT) was 91.80% and 86.30% and 90.50% and 87.80% and 89.00% and 69.30% and 77.20% and 73.40% and 64.60% and 95.20% and 95.30% and the “% OT-I” value (OT-I cells; depletion of CD11c+ cells in CD11c-DTR mice, compared with control group, each value one mouse (Suppl. Fig. 4B)) was 4.98% and 8.05% and 8.87% and 13.60%.
